Paper PMC6337383, “Discovery of Potent Inhibitors for the Large Neutral Amino Acid Transporter 1 (LAT1) by Structure-Based Methods” (International Journal of Molecular Sciences, 2018)
Where “and” joins values, the source holds several entries; their conditions need not be identical. Equal values may be shown once. Entries after “also recorded” stand apart in the source; their conditions may differ. Each block holds one compound with its values, some of them ahead of it.

Legend:
[1] = target: T1, recombinant human LAT1 (Homo sapiens, UniProt Q01650); conditions: cited from earlier work
T1 construct: made in house; host or cells: E. coli

[2] = target: T1, recombinant human LAT1; experiment: Inhibition of LAT1 mediated [3H]-His transport in proteoliposomes reconstituted with recombinant purified human LAT1; assay type: biochemical; set-up: Dose-response analysis, Mean / Dose-response analysis, single experiments: unit not given here; conditions: for inhibition at 100 µM: 100 µM compound; for % Residual Activity: 100 µM concentration, n = 3, Table S6; for LAT1 inhibition, activity in words: 100 μM compound, [3H]-His uptake in proteoliposomes; for IC50: 5 μM [3H]-His, proteoliposomes containing 10 mM His, mean ± S.D., three experiments; for Dose-response analysis, single experiments: Exp. 1, Exp. 2, Exp. 3 in this order; for Dose-response analysis, Mean: mean of Exp. 1-3; for times more potent than 1: ratio of IC50 values versus 1 (BCH)
Method: All 30 compounds were evaluated for their potency to inhibit LAT1 mediated histidine transport in proteoliposomes reconstituted with recombinant purified human LAT1 (see Methods). […]
Human LAT1 was over-expressed in E. coli and was purified as previously described. In brief, solubilized cell lysate was centrifuged (12,000× g, 10 min, 4 °C); supernatant was applied on a His-Trap HP column (5 mL Ni Sepharose) connected to ÄKTA start system. The column was equilibrated with 10 mL buffer (20 mM Tris HCl pH 8.0, 10% glycerol, 200 mM NaCl, 0.1% sarkosyl) prior to supernatant application. The column was washed with 10 mL buffer (20 mM Tris HCl pH 8.0, 10% glycerol, 200 mM NaCl, 0.05% DDM, and 2 mM DTE) and the protein was eluted with the same buffer plus 400 mM imidazole. Purified protein was desalted, in order to remove imidazole, using a PD-10 column in a buffer containing 20 mM Tris HCl pH 8.0, 10% glycerol, 0.05% DDM and 10 mM DTE.
The purified human LAT1 was reconstituted by detergent removal approach using the batch-wise method, as previously described. In brief, the initial mixture contained: 4 μg of purified protein, 100 μL of 10% C12E8, 100 μL of 10% egg yolk phospholipids (w/v) in the form of liposomes that were prepared as previously described, 20 mM Tris HCl pH 7.5, and 10 mM L-His in a final volume of 700 μL. This mixture was incubated with 0.5 g of Amberlite XAD-4 for 90 min at 23 °C, 1200 rpm to retain detergent.
To perform transport assays, the external substrate was removed by gel filtration chromatography: 600 μL of proteoliposomes were passed through a Sephadex G-75 column (0.7 cm diameter × 15 cm height) pre-equilibrated with 20 mM Tris HCl pH 7.5 and a concentration of sucrose to balance internal osmolarity. Transport was started adding 5 μM [^3H]-His to proteoliposomes and stopped after 30 min according to the stop inhibitor method, as previously described. In brief, in controls 1.5 µM HgCl2 was added at time zero and radioactivity was subtracted to samples for calculating net transport. After stopping the transport reaction, 100 μL of proteoliposomes was subjected to gel filtration chromatography using a Sephadex G-75 column (0.6 cm diameter × 8 cm height), to separate the external from the internal radioactivity. Proteoliposomes were eluted with 1 mL 50 mM NaCl in 4 mL scintillation mixture and counted. […] Protein concentration was estimated by Chemidoc imaging system1 [104] to calculate the human LAT1 specific activity.

T1 sequence (Q01650 whole entry): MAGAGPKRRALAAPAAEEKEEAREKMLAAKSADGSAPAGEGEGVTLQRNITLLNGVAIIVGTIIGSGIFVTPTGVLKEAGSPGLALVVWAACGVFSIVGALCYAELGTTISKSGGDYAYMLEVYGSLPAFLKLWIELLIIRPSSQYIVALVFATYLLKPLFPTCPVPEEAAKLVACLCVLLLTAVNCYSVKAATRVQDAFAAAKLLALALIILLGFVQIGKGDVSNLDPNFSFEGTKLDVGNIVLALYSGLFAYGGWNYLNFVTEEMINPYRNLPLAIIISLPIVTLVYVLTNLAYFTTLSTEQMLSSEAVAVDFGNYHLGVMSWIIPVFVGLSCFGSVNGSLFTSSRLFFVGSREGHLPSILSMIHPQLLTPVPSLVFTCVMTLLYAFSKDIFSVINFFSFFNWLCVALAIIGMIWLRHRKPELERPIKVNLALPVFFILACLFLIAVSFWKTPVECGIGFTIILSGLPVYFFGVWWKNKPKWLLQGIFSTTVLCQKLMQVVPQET

SMILES: FC(F)(F)Oc1ccc(/N=c2\ssnc2Cl)cc1 [Compound 3, (Z)-4-chloro-N-(4-(trifluoromethoxy)phenyl)-5H-1,2,3-dithiazol-5-imine]
- inhibition of human LAT1 reconstituted in proteoliposomes, in words [1]: potent inhibition

SMILES: CC(C)COc1ccc(C(N)CC(=O)O)cc1 (centres unmarked) [Compound 27]
- LAT1 inhibition, activity in words [2]: slightly active
- % Residual Activity [2]: 67.96%

SMILES: Cc1sc2ccccc2c1CN1CCCn2nc(C(O)CO)cc2C1 (centres unmarked) [Compound 21]
- % Residual Activity [2]: 85.14%

SMILES: CCCCN(Cc1ccsc1)C(=O)c1ccc(NS(=O)(=O)CC)cc1 [Compound 17]
- % Residual Activity [2]: 94.75%

SMILES: O=C(O)CNC(=O)c1nc(Cl)c2ccccc2c1O [Compound 31]
- % Residual Activity [2]: 91.83%

SMILES: C=CCN(Cc1cccc(OCC(N)=O)c1)Cc1ccccc1C [Compound 15]
- % Residual Activity [2]: 92.21%

SMILES: Cc1cccnc1CN(C)C(C(=O)O)c1ccc(-n2cccn2)cc1 (centres unmarked) [Compound 26]
- % Residual Activity [2]: 89.37%

The next lines start with results.

- inhibition at 100 µM [2]: 80 to 90%
- % Residual Activity [2]: 13.17%
SMILES: N[C@@H](Cc1ccc(OCc2c(Cl)cccc2Cl)cc1)C(=O)O [Compound 38]

- LAT1 inhibition, activity in words [2]: slightly active
- % Residual Activity [2]: 77.12%
SMILES: NC(Cc1cn(-c2ccccc2)nn1)C(=O)O (centres unmarked) [Compound 34]

- inhibition at 100 µM [2]: 80 to 90%
- LAT1 inhibition, activity in words [2]: highly active
- % Residual Activity [2]: 17.86%
SMILES: NC(CSCc1cccc2ccccc12)C(=O)O (centres unmarked) [Compound 33]

- inhibition at 100 µM [2]: 80 to 90%
- % Residual Activity [2]: 11.76%
SMILES: N[C@@H](CSC(c1ccccc1)(c1ccccc1)c1ccccc1)C(=O)O [Compound 39]

- inhibition at 100 µM [2]: 80 to 90%
- % Residual Activity [2]: 15.21%
SMILES: N[C@@H](Cc1cccc(C(F)(F)F)c1)C(=O)O [Compound 41]

- inhibition at 100 µM [2]: 80 to 90%
- LAT1 inhibition, activity in words [2]: highly active
- % Residual Activity [2]: 11.78%
SMILES: NC(Cc1cccc(OCc2ccccc2)c1)C(=O)O (centres unmarked) [Compound 35]

- IC50 [2]: 1480 ± 270 nM
- inhibition at 100 µM [2]: > 90%
- LAT1 inhibition, activity in words [2]: almost complete inhibition
- % Residual Activity [2]: 7.83%
- Dose-response analysis, single experiments ([2]; 0.1 [] M compound): 91.01 and 109.97 and 91.55
- Dose-response analysis, Mean ([2]; 0.1 [] M compound): 97.51
- Dose-response analysis, single experiments ([2]; 0.2 [] M compound): 77.34 and 82.24 and 73.67
- Dose-response analysis, Mean ([2]; 0.2 [] M compound): 77.75
- Dose-response analysis, single experiments ([2]; 0.5 [] M compound): 72.30 and 76.32 and 64.01
- Dose-response analysis, Mean ([2]; 0.5 [] M compound): 70.88
- Dose-response analysis, single experiments ([2]; 1 [] M compound): 64.39 and 51.09 and 41.55
- Dose-response analysis, Mean ([2]; 1 [] M compound): 52.34
- Dose-response analysis, single experiments ([2]; 2.5 [] M compound): 42.45 and 36.45 and 24.15
- Dose-response analysis, Mean ([2]; 2.5 [] M compound): 34.35
- Dose-response analysis, Mean ([2]; 5 [] M compound): 29.11
- Dose-response analysis, Mean ([2]; 10 [] M compound): 18.24
- Dose-response analysis, Mean ([2]; 25 [] M compound): 21.07
- Dose-response analysis, single experiments ([2]; 50 [] M compound): 12.95 and 13.71 and 13.30
- Dose-response analysis, Mean ([2]; 50 [] M compound): 13.32
- Dose-response analysis, Mean ([2]; 100 [] M compound): 14.52
- times more potent than 1 [2]: ~four times more potent
SMILES: N[C@@H](Cc1c[nH]c2ccc(OCc3ccccc3)cc12)C(=O)O [Compound 42]

- IC50 [2]: 640 ± 120 nM
- inhibition at 100 µM [2]: > 90%
- % Residual Activity [2]: 0%
- Dose-response analysis, single experiments ([2]; 0.1 [] M compound): 81.30 and 100.31 and 62.08
- Dose-response analysis, Mean ([2]; 0.1 [] M compound): 81.23
- Dose-response analysis, Mean ([2]; 0.2 [] M compound): 82.32
- Dose-response analysis, Mean ([2]; 0.5 [] M compound): 45.71
- Dose-response analysis, single experiments ([2]; 1 [] M compound): 38.13 and 55.14 and 40.82
- Dose-response analysis, Mean ([2]; 1 [] M compound): 44.70
- Dose-response analysis, Mean ([2]; 2.5 [] M compound): 28.38
- Dose-response analysis, Mean ([2]; 5 [] M compound): 5.92
- Dose-response analysis, single experiments ([2]; 10 [] M compound): 0.00
- Dose-response analysis, Mean ([2]; 10 [] M compound): 0.00
- Dose-response analysis, Mean ([2]; 25 [] M compound): 13.53
- Dose-response analysis, Mean ([2]; 50 [] M compound): 2.08
- Dose-response analysis, Mean ([2]; 100 [] M compound): 14.15
- times more potent than 1 [2]: ~ 10
SMILES: N[C@@H](CCc1cc(Cl)cc(Cl)c1)C(=O)O [Compound 36]
- LAT1 inhibition, activity in words [2]: highly active; also recorded: almost complete inhibition

- IC50 [2]: 33200 ± 4500 nM
- inhibition at 100 µM [2]: 80 to 100%
- LAT1 inhibition, activity in words [2]: highly active
- % Residual Activity [2]: 12.93%
- Dose-response analysis, single experiments ([2]; 0.1 [] M compound): 98.56 and 118.69 and 87.20
- Dose-response analysis, Mean ([2]; 0.1 [] M compound): 101.48
- Dose-response analysis, single experiments ([2]; 0.2 [] M compound): 109.35 and 122.43 and 93.48
- Dose-response analysis, Mean ([2]; 0.2 [] M compound): 108.42
- Dose-response analysis, single experiments ([2]; 0.5 [] M compound): 112.59 and 110.90 and 85.27
- Dose-response analysis, Mean ([2]; 0.5 [] M compound): 102.92
- Dose-response analysis, single experiments ([2]; 1 [] M compound): 120.86 and 119.63 and 97.34
- Dose-response analysis, Mean ([2]; 1 [] M compound): 112.61
- Dose-response analysis, single experiments ([2]; 2.5 [] M compound): 84.89 and 85.98 and 94.20
- Dose-response analysis, Mean ([2]; 2.5 [] M compound): 88.36
- Dose-response analysis, single experiments ([2]; 5 [] M compound): 79.14 and 103.43 and 83.33
- Dose-response analysis, Mean ([2]; 5 [] M compound): 88.63
- Dose-response analysis, single experiments ([2]; 10 [] M compound): 96.40 and 89.72 and 73.19
- Dose-response analysis, Mean ([2]; 10 [] M compound): 86.44
- Dose-response analysis, single experiments ([2]; 25 [] M compound): 57.91 and 52.02 and 47.58
- Dose-response analysis, Mean ([2]; 25 [] M compound): 52.51
- Dose-response analysis, Mean ([2]; 50 [] M compound): 38.86
- Dose-response analysis, Mean ([2]; 100 [] M compound): 24.50
SMILES: COc1ccc(CSCC(N)C(=O)O)cc1Br (centres unmarked) [Compound 28]
